Values after ≈ are worked out from the molar mass of the structure shown. Like-named read-outs stand apart in the source and are kept apart here. Residues, ends and D or L forms follow the SMILES beside them.
Key:
[1] = tested on: Ascophyta pisi (MUCL 30164); format: cell-based; details: for A PISI IC: the source numbers peptides by N-terminal amino acid
Procedure: (§1) The following fungal strains were used: Alternaria brassicicola (MUCL 20297), Ascophyta pisi (MUCL 30164), Botrytis cinerea (MUCL 30158), Fusarium culmorum (IMI 180420) and Verticillium dahliae (MUCL 19210).
(§2) Fungi were grown on six cereal agar plates at room temperature and under white fluorescent light except for F culmorum and V dahliae which were grown in the dark. The duration of the spore harvest varied between 10 and 25 days depending on the strain. Spores were collected as follows. Five to ten ml of sterile milli-Q water was poured into each dish and the surface of the agar was rubbed with a sterile spatula to obtain a suspension containing mycelium and spores. This suspension was filtered through a sterile glasswool-plugged funnel and the filtrate containing the spores was collected in a sterile polypropylene centrifuge tube. The A brassicicola spores were suspended in sterile 0.1 Tween 20 (Merk, 822184) due to their hydrophobic nature. The spore suspensions were then washed twice by centrifugation at 2,400×g for 15 minutes and resuspended in a small volume of steril milli-Q water. The spore density was determined in a counting chamber and then adjusted to 4×10^7 spores per ml. Aliquots of the spore suspension were transferred to sterile microtubes and an equal volume of sterile 50% glycerol (Merck, 4091) was added to each tube so that a final spore suspension of 2×10^7 spores per ml in 25% glycerol was obtained. After careful mixing of the stock, the spore suspension was transferred in 100 μl aliquots to sterile microtubes and stored at −80° C.
(§3) Antifungal activity was measured by photospectrometry as described by Broekaert et al, (1990, FEMS Microbiol Lett, 69:55-60). Tests were performed by adding 20 μl of test solution and 80 μl of a fungal spore suspension (2×10^4 spores/ml) per well in a sterile flat-bottom 96-well microtiterplate. The spore suspension was prepared by diluting the stock spore suspension ([…] in 25% glycerol) 1:1000 in half-strength potato dextrose broth. A positive growth control consisting of eight wells containing 20 μl of sterile milli-Q water and 80 μl of the fungal spore suspension was included in each test. The microtiterplates were incubated (with the lid on) in an aerated place at room temperature and under conditions of darkness for all test organisms.
(§4) After 30 minutes of incubation (when the spores are settled on the well bottom) the optical density was measured in a microplate reader (Bio Rad 3550-UV) at 595 nm. Incubation of the microtiterplates continued until the optical density of the control microculture was between 0.250 and 0.500, which took approximately 72 hours (96 hours for V dahliae). Percentage of growth inhibition (% GI) was estimated as 100 times the ratio of the corrected absorbance of the control microculture minus the corrected absorbance of the test microculture over the corrected absorbance of the control microculture at 595 nm. The corrected absorbance values equal the absorbance at 595 nm of the culture measured after 72 or 96 hours minus the absorbance at 595 nm measured after 30 minutes.
(§5) % GI=[(Acontrol−Atest/Acontrol]×100
(§6) where Acontrol=(A72/96h−A30min)control
(§7) The IC50 value is defined as the concentration that gives a 50% growth inhibition after 72 or 96 hours of incubation. The minimum inhibitory concentration (MIC) corresponds to the minimum concentration that gives 100% growth inhibition after 72 or 96 hours incubation.

[2] = tested on: Fusarium culmorum (IMI 180420); assay: Antifungal growth inhibition microplate assay (photospectrometry); format: cell-based; details: ½ PDB; for F CULMORUM IC: Table 6 / FIG. 8: Rs-AFP1-based 9-mer split peptides
Procedure: as §1, §2, §3, §4, §5, §6, §7

[3] = Table 6: Rs-AFP1-based 9-mer split peptides, ½ PDB
[4] = Table 3 / FIG. 6: Rs-AFP2-based 9-mer split peptides, the source numbers peptides by N-terminal amino acid
[5] = Table 3: Rs-AFP2-based 9-mer split peptides, duplicate
[6] = the source numbers peptides by N-terminal amino acid
[7] = Table 6: Rs-AFP1-based 9-mer split peptides
[8] = Table 7: Rs-AFP1-based 12-mer split peptides, ½ PDB
[9] = Table 7 / FIG. 8: Rs-AFP1-based 12-mer split peptides, the source numbers peptides by N-terminal amino acid
[10] = Table 7: Rs-AFP1-based 12-mer split peptides
[11] = Table 4 / FIG. 6: Rs-AFP2-based 12-mer split peptides, the source numbers peptides by N-terminal amino acid
[12] = Table 4: Rs-AFP2-based 12-mer split peptides, triplicate

Row | Compound | A PISI MIC [1, 3] | A PISI IC [1, 3] | IC50 [2, 4] | MIC [2, 5] | F CULMORUM IC [2, 6] | F CULMORUM MIC [2, 7] | A PISI IC50 [1, 8] | A PISI MIC [1, 8] | F CULMORUM IC50 [2, 9] | F CULMORUM MIC [2, 10] | IC50 [2, 11] | MIC [2, 12] | further results
1 | Ac-RHGSCNYVF-NH2 [compound 78] | 100 µg/mL | 70 µg/mL | 284 µg/mL | 400 µg/mL | 69 µg/mL | 100 µg/mL |  |  |  |  |  |  | 
2 | CC[C@H](C)[C@H](NC(=O)[C@H](CS)NC(=O)[C@H](CCCCN)NC(=O)[C@H](Cc1c[nH]cn1)NC(=O)[C@H](C)NC(=O)[C@@H]1CCCN1C(=O)[C@H](Cc1ccccc1)NC(=O)[C@@H](NC(=O)[C@H](Cc1ccc(O)cc1)NC(C)=O)C(C)C)C(=O)N[C@@H](CS)C(=O)N[C@@H](Cc1ccc(O)cc1)C(=O)N[C@@H](Cc1ccccc1)C(N)=O [compound 127] (Ac-YVFPAHKCICYF-NH2) |  |  |  |  |  |  | 302 µg/mL | 400 µg/mL | 354 µg/mL | >400 µg/mL |  |  | 
3 | CC[C@H](C)[C@H](NC(=O)[C@H](CS)NC(=O)[C@H](CCCCN)NC(=O)[C@H](Cc1c[nH]cn1)NC(=O)[C@H](C)NC(=O)[C@@H]1CCCN1C(C)=O)C(=O)N[C@@H](CS)C(=O)N[C@@H](Cc1ccc(O)cc1)C(=O)N[C@@H](Cc1ccccc1)C(N)=O [compound 87] (Ac-PAHKCICYF-NH2) | 50 µg/mL | 31 µg/mL | 39 µg/mL (≈ 34.7 µM) | 50 µg/mL (≈ 44.5 µM) | 28 µg/mL | 37.5 µg/mL |  |  |  |  |  |  | 
4 | CC[C@H](C)[C@H](NC(=O)[C@H](CS)NC(=O)[C@H](CCCCN)NC(C)=O)C(=O)N[C@@H](CS)C(=O)N[C@@H](Cc1ccc(O)cc1)C(=O)N[C@@H](Cc1ccccc1)C(N)=O [compound 44] (Ac-KCICYF-NH2) |  |  |  |  |  |  |  |  |  |  |  |  | A PISI IC50 [1]: 400 µg/mL; A PISI MIC [1]: >400 µg/mL; F CULMORUM IC50 ([2]; Table 5 / FIG. 8: Rs-AFP1-based 6-mer split peptides): 376 µg/mL; F CULMORUM MIC ([2]; Table 5: Rs-AFP1-based 6-mer split peptides): >400 tg/ml
5 | CC[C@H](C)[C@H](NC(=O)[C@H](CS)NC(=O)[C@H](CCCCN)NC(=O)[C@H](Cc1c[nH]cn1)NC(=O)[C@H](C)NC(C)=O)C(=O)N[C@@H](CS)C(=O)N[C@@H](Cc1ccc(O)cc1)C(=O)N[C@@H](Cc1ccccc1)C(=O)N1CCC[C@H]1C(N)=O [compound 88] (Ac-AHKCICYFP-NH2) | 25 µg/mL | 18 µg/mL | 35 µg/mL (≈ 31.2 µM) | 50 µg/mL (≈ 44.5 µM) | 21 µg/mL | 37.5 µg/mL |  |  |  |  |  |  | 
6 | Ac-LEKARHGSCNYV-NH2 [compound 117] |  |  |  |  |  |  | 293 µg/mL | 400 µg/mL | 347 µg/mL | 400 µg/mL | 327 µg/mL | >400 µg/mL | 
7 | CC[C@H](C)[C@H](NC(=O)[C@H](CS)NC(=O)[C@H](CCCCN)NC(=O)[C@H](Cc1c[nH]cn1)NC(=O)[C@H](C)NC(=O)[C@@H]1CCCN1C(=O)[C@H](Cc1ccccc1)NC(=O)[C@@H](NC(C)=O)C(C)C)C(=O)N[C@@H](CS)C(=O)N[C@@H](Cc1ccc(O)cc1)C(=O)N[C@@H](Cc1ccccc1)C(=O)N1CCC[C@H]1C(N)=O [compound 128] (Ac-VFPAHKCICYFP-NH2) |  |  |  |  |  |  | 181 µg/mL | 400 µg/mL | 320 µg/mL | >400 µg/mL | 344 µg/mL (≈ 235 µM) | >400 µg/mL | 
8 | Ac-KARHGSCNYVFP-NH2 [compound 119] |  |  |  |  |  |  | 66 µg/mL | 100 µg/mL | 33 µg/mL | 50 µg/mL | 37 µg/mL | 50 µg/mL | 
